Reference: patent US7199126B2, “Compositions and treatments for inhibiting kinase and/or HMG-CoA reductase” (Pharmix Corporation, priority 2004, dated 2007)
pIC50: −log10 of the molar value.

Molecular target: T1, human recombinant p38α protein kinase (Homo sapiens, UniProt Q16539)
T1 construct: purchased UBI (Upstate Biotechnology Inc.) 14–251; host or cells: E. coli
Assay: Human p38α MAP kinase inhibition assay (cell-free, phosphorylation of myelin basic protein)
Format: biochemical
Experimental: Candidate compound and/or vehicle was preincubated with 0.075 μg/mL enzyme in modified HEPES buffer pH 7.4 at 25° C. for 15 minutes. The reaction was initiated by addition of 100 μM ATP and allowed to proceed for another 60 minutes. The reaction was terminated by aspirating the solution. Phosphorylated MBP was detected by incubation with a mouse monoclonal IgG2a anti-phosphoMBP antibody. Bound anti-phosphoMBP antibody was quantitated by incubation with a HRP conjugated goat anti-mouse IgG.

T1 sequence (Q16539 whole entry): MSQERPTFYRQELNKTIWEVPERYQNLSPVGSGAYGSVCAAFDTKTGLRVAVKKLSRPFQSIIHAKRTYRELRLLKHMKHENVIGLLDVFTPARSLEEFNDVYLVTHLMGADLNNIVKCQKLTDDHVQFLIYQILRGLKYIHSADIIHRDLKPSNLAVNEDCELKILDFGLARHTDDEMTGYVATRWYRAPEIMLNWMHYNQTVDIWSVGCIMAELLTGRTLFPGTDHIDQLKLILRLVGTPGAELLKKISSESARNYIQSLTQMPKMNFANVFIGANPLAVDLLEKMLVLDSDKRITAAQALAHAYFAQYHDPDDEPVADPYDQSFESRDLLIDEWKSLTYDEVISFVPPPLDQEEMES

- pIC50: < 4.00
SMILES: CCC(C)(C)C(=O)O[C@H]1C[C@@H](C)C=C2C=C[C@H](C)[C@H](CC[C@@H]3C[C@@H](O)CC(=O)O3)[C@H]21 [Simvastatin sodium]
